In ChEMBL document CHEMBL1155690, “Antiyeast steroidal saponins from Yucca schidigera (Mohave yucca), a new anti-food-deteriorating agent” (2000) one finds MIC data, which are given here for 14 molecules.

≈ marks a conversion by molar mass, not a printed value. Where only a bound is given, the exact number is not on record here.

What all share (type): functional
One test concerns Debaryomyces hansenii. In words: Antimicrobial activity against Debaryomyces hansenii IFO 18 after 48 hrs by agar dilution method. The conditions noted are these: IFO 18, 48 h.
Another test concerns Wickerhamomyces anomalus. The experiment in a line: Antimicrobial activity against Hansenula anomala HUT 7083 after 48 hrs by agar dilution method.
A further test has as its system Hanseniaspora uvarum. The experiment in a line: Antimicrobial activity against Kloeckera apiculata IFO 154 after 48 hrs by agar dilution method. Particulars: IFO 154, 48 h.
A further test relates to Yamadazyma nakazawae. The experiment in a line: Antimicrobial activity against Pichia nakazawae HUT 1688 after 48 hrs by agar dilution method.
In another test the test system is Saccharomyces cerevisiae. The experiment in a line: Antimicrobial activity against Saccharomyces cerevisiae IFO 203 after 48 hrs by agar dilution method. Particulars: IFO 203, 48 h.
The next test relates to Candida albicans. In words: Antimicrobial activity against Candida albicans TIMM 0134 after 48 hrs by agar dilution method.

With `CC1CC[C@@]2(OC1)O[C@H]1C[C@H]3[C@@H]4CC[C@@H]5C[C@@H](O[C@@H]6O[C@H](CO)[C@H](O)[C@H](O[C@@H]7OC[C@@H](O)[C@H](O)[C@H]7O)[C@H]6O[C@@H]6O[C@H](CO)[C@@H](O)[C@H](O)[C@H]6O)[C@@H](O)C[C@]5(C)[C@H]4CC[C@]3(C)[C@H]1[C@@H]2C` (some centres undefined), the MIC was 100 µg/mL (≈ 112 µM) in the test on Debaryomyces hansenii; over 100 µg/mL against Wickerhamomyces anomalus; over 100 µg/mL in the test with Hanseniaspora uvarum; over 100 µg/mL against Yamadazyma nakazawae; 100 µg/mL (≈ 112 µM) with Saccharomyces cerevisiae; over 100 µg/mL with Candida albicans.
In the case of `C[C@H]1CC[C@@]2(OC1)O[C@H]1C[C@H]3[C@@H]4CC[C@@H]5C[C@@H](O[C@@H]6O[C@H](CO)[C@@H](O)[C@H](O[C@@H]7O[C@H](CO)[C@@H](O)[C@H](O)[C@H]7O)[C@H]6O[C@@H]6O[C@H](CO)[C@@H](O)[C@H](O)[C@H]6O)CC[C@]5(C)[C@H]4CC[C@]3(C)[C@H]1[C@@H]2C`, the MIC against Debaryomyces hansenii was 6.25 µg/mL (≈ 6.92 µM); against Wickerhamomyces anomalus, 1.56 µg/mL (≈ 1.73 µM); in the test on Hanseniaspora uvarum it was over 100 µg/mL; in the test with Yamadazyma nakazawae, 3.13 µg/mL (≈ 3.47 µM); with Saccharomyces cerevisiae, 6.25 µg/mL (≈ 6.92 µM); in the test with Candida albicans, over 100 µg/mL.
Regarding `C[C@H]1CC[C@@]2(OC1)O[C@H]1C[C@H]3[C@@H]4CC[C@@H]5C[C@@H](O[C@@H]6O[C@H](CO)[C@H](O)[C@H](O[C@@H]7O[C@H](CO)[C@@H](O)[C@H](O)[C@H]7O)[C@H]6O[C@@H]6O[C@H](CO)[C@@H](O)[C@H](O)[C@H]6O)CC[C@]5(C)[C@H]4CC[C@]3(C)[C@H]1[C@@H]2C`, the MIC in the test on Debaryomyces hansenii worked out at 6.25 µg/mL (≈ 6.92 µM); with Wickerhamomyces anomalus it was 3.13 µg/mL (≈ 3.47 µM); in the test on Hanseniaspora uvarum, 50 µg/mL (≈ 55.4 µM); in the test on Yamadazyma nakazawae it was 6.25 µg/mL (≈ 6.92 µM); against Saccharomyces cerevisiae it was 12.5 µg/mL (≈ 13.8 µM); in the test with Candida albicans it was 25 µg/mL (≈ 27.7 µM).
`C=C1CC[C@@]2(OC1)O[C@H]1C[C@H]3[C@@H]4CC[C@@H]5C[C@@H](O[C@@H]6O[C@H](CO)[C@@H](O)[C@H](O[C@@H]7O[C@H](CO)[C@@H](O)[C@H](O)[C@H]7O)[C@H]6O[C@@H]6O[C@H](CO)[C@@H](O)[C@H](O)[C@H]6O)CC[C@]5(C)[C@H]4CC[C@]3(C)[C@H]1[C@@H]2C`: the MIC was over 100 µg/mL with Debaryomyces hansenii; 6.13 µg/mL (≈ 6.8 µM) against Wickerhamomyces anomalus; over 100 µg/mL with Hanseniaspora uvarum; 3.13 µg/mL (≈ 3.47 µM) in the test with Yamadazyma nakazawae; 12.5 µg/mL (≈ 13.9 µM) in the test with Saccharomyces cerevisiae; 12.5 µg/mL (≈ 13.9 µM) in the test on Candida albicans.
With `C=C1CC[C@@]2(OC1)O[C@H]1C[C@H]3[C@@H]4CC[C@@H]5C[C@@H](O[C@@H]6O[C@H](CO)[C@H](O)[C@H](O[C@@H]7OC[C@@H](O)[C@H](O)[C@H]7O)[C@H]6O[C@@H]6O[C@H](CO)[C@@H](O)[C@H](O)[C@H]6O)CC[C@]5(C)[C@H]4CC[C@]3(C)[C@H]1[C@@H]2C`, the MIC is over 100 µg/mL against Debaryomyces hansenii; 3.13 µg/mL (≈ 3.59 µM) in the test on Wickerhamomyces anomalus; over 100 µg/mL in the test with Hanseniaspora uvarum; 3.13 µg/mL (≈ 3.59 µM) against Yamadazyma nakazawae; 12.5 µg/mL (≈ 14.4 µM) against Saccharomyces cerevisiae; 12.5 µg/mL (≈ 14.4 µM) against Candida albicans.
In the case of `C=C1CC[C@@]2(OC1)O[C@H]1C[C@H]3[C@@H]4CC[C@@H]5C[C@@H](O[C@@H]6O[C@H](CO)[C@@H](O)[C@H](O[C@@H]7OC[C@@H](O)[C@H](O)[C@H]7O)[C@H]6O[C@@H]6O[C@H](CO)[C@@H](O)[C@H](O)[C@H]6O)CC[C@]5(C)[C@H]4CC(=O)[C@]3(C)[C@H]1[C@@H]2C`, the MIC in the test on Debaryomyces hansenii, against Wickerhamomyces anomalus, against Hanseniaspora uvarum, in the test on Yamadazyma nakazawae, against Saccharomyces cerevisiae and in the test with Candida albicans was over 100 µg/mL throughout.
Take `C=C1CC[C@@]2(OC1)O[C@H]1C[C@H]3[C@@H]4CC[C@@H]5C[C@@H](O[C@@H]6O[C@H](CO)[C@H](O)[C@H](O)[C@H]6O[C@@H]6O[C@H](CO)[C@@H](O)[C@H](O)[C@H]6O)[C@@H](O)C[C@]5(C)[C@H]4CC[C@]3(C)[C@H]1[C@@H]2C`: the MIC in the test with Debaryomyces hansenii, against Wickerhamomyces anomalus, in the test on Hanseniaspora uvarum, in the test on Yamadazyma nakazawae, against Saccharomyces cerevisiae and in the test with Candida albicans was over 100 µg/mL each time.
On to `C=C1CC[C@@]2(OC1)O[C@H]1C[C@H]3[C@@H]4CC[C@@H]5C[C@@H](O[C@@H]6O[C@H](CO)[C@H](O)[C@H](O[C@@H]7OC[C@@H](O)[C@H](O)[C@H]7O)[C@H]6O[C@@H]6O[C@H](CO)[C@@H](O)[C@H](O)[C@H]6O)[C@@H](O)C[C@]5(C)[C@H]4CC[C@]3(C)[C@H]1[C@@H]2C`, for which the MIC in the test on Debaryomyces hansenii was over 100 µg/mL; with Wickerhamomyces anomalus, over 100 µg/mL; with Hanseniaspora uvarum, over 100 µg/mL; in the test on Yamadazyma nakazawae, 100 µg/mL (≈ 113 µM); against Saccharomyces cerevisiae, 100 µg/mL (≈ 113 µM); in the test on Candida albicans, 100 µg/mL (≈ 113 µM).
As for `C=C1CC[C@@]2(OC1)O[C@H]1C[C@H]3[C@@H]4CC[C@@H]5C[C@@H](O[C@@H]6O[C@H](CO)[C@@H](O)[C@H](O[C@@H]7OC[C@@H](O)[C@H](O)[C@H]7O)[C@H]6O[C@@H]6O[C@H](CO)[C@@H](O)[C@H](O)[C@H]6O)CC[C@]5(C)[C@H]4CC[C@]3(C)[C@H]1[C@@H]2C`, the MIC came to 6.25 µg/mL (≈ 7.18 µM) in the test on Debaryomyces hansenii; 3.13 µg/mL (≈ 3.59 µM) in the test on Wickerhamomyces anomalus; 12.5 µg/mL (≈ 14.4 µM) against Hanseniaspora uvarum; 3.13 µg/mL (≈ 3.59 µM) with Yamadazyma nakazawae; 3.13 µg/mL (≈ 3.59 µM) with Saccharomyces cerevisiae; 6.25 µg/mL (≈ 7.18 µM) in the test on Candida albicans.
Take `C[C@H]1CC[C@@]2(OC1)O[C@H]1C[C@H]3[C@@H]4CC[C@@H]5C[C@@H](O[C@@H]6O[C@H](CO)[C@@H](O)[C@H](O)[C@H]6O[C@@H]6O[C@H](CO)[C@@H](O)[C@H](O)[C@H]6O)CC[C@]5(C)[C@H]4CC[C@]3(C)[C@H]1[C@@H]2C`: the MIC in the test with Debaryomyces hansenii is over 100 µg/mL; in the test with Wickerhamomyces anomalus, 6.25 µg/mL (≈ 8.44 µM); in the test on Hanseniaspora uvarum it was over 100 µg/mL; in the test on Yamadazyma nakazawae, 3.13 µg/mL (≈ 4.22 µM); against Saccharomyces cerevisiae it was 12.5 µg/mL (≈ 16.9 µM); with Candida albicans it was 12.5 µg/mL (≈ 16.9 µM).
`C[C@H]1CC[C@@]2(OC1)O[C@H]1C[C@H]3[C@@H]4CC[C@@H]5C[C@@H](O[C@@H]6O[C@H](CO)[C@H](O)[C@H](O)[C@H]6O[C@@H]6O[C@H](CO)[C@@H](O)[C@H](O)[C@H]6O)[C@@H](O)C[C@]5(C)[C@H]4CC[C@]3(C)[C@H]1[C@@H]2C`: the MIC is over 100 µg/mL against Debaryomyces hansenii; over 100 µg/mL with Wickerhamomyces anomalus; over 100 µg/mL in the test with Hanseniaspora uvarum; 100 µg/mL (≈ 132 µM) against Yamadazyma nakazawae; over 100 µg/mL in the test with Saccharomyces cerevisiae; over 100 µg/mL with Candida albicans.
Consider `CC1CC[C@@]2(OC1)O[C@H]1C[C@H]3[C@@H]4CC[C@@H]5C[C@@H](O[C@@H]6O[C@H](CO)[C@@H](O)[C@H](O[C@@H]7OC[C@@H](O)[C@H](O)[C@H]7O)[C@H]6O[C@@H]6O[C@H](CO)[C@@H](O)[C@H](O)[C@H]6O)CC[C@]5(C)[C@H]4CC[C@]3(C)[C@H]1[C@@H]2C` (mixture of isomers), for which the MIC against Debaryomyces hansenii was 6.25 µg/mL; against Wickerhamomyces anomalus it was 3.13 µg/mL; in the test with Hanseniaspora uvarum it was over 100 µg/mL; against Yamadazyma nakazawae, 3.13 µg/mL; in the test with Saccharomyces cerevisiae it was 6.25 µg/mL; against Candida albicans, 50 µg/mL.
Consider `CC1CC[C@@]2(OC1)O[C@H]1C[C@H]3[C@@H]4CC[C@@H]5C[C@@H](O[C@@H]6O[C@H](CO)[C@@H](O)[C@H](O[C@@H]7OC[C@@H](O)[C@H](O)[C@H]7O)[C@H]6O[C@@H]6O[C@H](CO)[C@@H](O)[C@H](O)[C@H]6O)CC[C@]5(C)[C@H]4CC(=O)[C@]3(C)[C@H]1[C@@H]2C` (mixture of isomers), for which the MIC was over 100 µg/mL in the test with Debaryomyces hansenii; 100 µg/mL against Wickerhamomyces anomalus; over 100 µg/mL in the test on Hanseniaspora uvarum; over 100 µg/mL against Yamadazyma nakazawae; 100 µg/mL in the test with Saccharomyces cerevisiae; over 100 µg/mL in the test on Candida albicans.
On to `CC1CC[C@@]2(OC1)O[C@H]1C[C@H]3[C@@H]4CC[C@@H]5C[C@@H](O[C@@H]6O[C@H](CO)[C@H](O)[C@H](O[C@@H]7OC[C@@H](O)[C@H](O)[C@H]7O)[C@H]6O[C@@H]6O[C@H](CO)[C@@H](O)[C@H](O)[C@H]6O)CC[C@]5(C)[C@H]4CC[C@]3(C)[C@H]1[C@@H]2C` (mixture of isomers), for which the MIC was 50 µg/mL in the test with Debaryomyces hansenii; 3.13 µg/mL with Wickerhamomyces anomalus; over 100 µg/mL against Hanseniaspora uvarum; 12.5 µg/mL against Yamadazyma nakazawae; 25 µg/mL against Saccharomyces cerevisiae; over 100 µg/mL with Candida albicans.
